Series [1] deals with T1, endoplasmic reticulum Ca2+-ATPase (SERCA), SR vesicles from rabbit skeletal muscle (Oryctolagus cuniculus, UniProt P04191).
T1 construct: sarcoplasmic reticulum (SR) vesicles prepared from rabbit skeletal muscle; from tissue; host or cells: rabbit skeletal muscle sarcoplasmic reticulum vesicles
Kind of series: SERCA inhibition: 45Ca2+ uptake to sarcoplasmic reticulum vesicles. The series is classed as biochemical. As for the experimental part: The primary amine-containing thapsigargin analogs of the invention have endoplasmic reticulum Ca^2+-ATPase inhibitory activity. This activity is measured as the concentration of analog needed to inhibit 50% of this ATPase (IC50). The IC50 of the analogs of the invention is desirably at most 500 nM, preferably at most 200 nM, and more preferably at most 50 nM of analog.
The inhibitory potency of thapsigargin and its analogs was determined as the concentration required to produce 50% inhibition (i.e. IC50) of ^45Ca^2+ uptake to sarcoplasmic reticulum (SR) vesicles prepared from rabbit skeletal muscle by the method of De Meis and Hasselbach (J. Biol. Chem., 246: 4759-4763, 1971). The ^45Ca^2+ uptake assay was as described previously (Christensen, et al., FEBS, 335: 345-348, 1993), with the following modifications: 5 μg/ml of SR protein was incubated at 25EC and free Ca^2+ adjusted to 100 nM using 4 min. uptake time. Under these conditions, Ca^2+ could proceed linearly with time for at least 8 minutes. Measurements of Ca^2+ within TSU cells was determined as described previously (Lin et al., The Prostate, 33:201-207, 1997).
(§1) The IC50 results are mean (n=3)±standard error. The LC50 results are mean (n=5)±standard error. The entry “ND” stands for “not determined”. Clonogenic survival not determined above 10 μM for dBTG. Analogs with −boc have a t-butoxycarbonyl (boc) protected amino group.

The nature of series [2]: Clonogenic survival of TSU-Pr1 cells after 72 hours exposure to TG analogs. The format is cell-based, human. Particulars: human; TSU-Pr1, 72 hours exposure; mean (n=5) ± standard error; read-out: LC50 (concentration needed to kill 50% of clonogenic cells). As for the experimental part:
The primary amine-containing thapsigargin analogs of the invention have non-specific toxicity toward cells. This toxicity is measured as the concentration of analog needed to kill 50% of clonogenic cells (LC50). The LC50 of the analogs of the invention is desirably at most 20 μM, preferably at most 5 μM, and more preferably at most 500 nM of analog.
Percentage clonogenic survival of TSU-Pr1 (2×10^5 cells) following 72 hours of exposure to varying concentrations of TG analogs was performed as described in Martikainen et al. Cancer Res., 51, 4693-4700 (1991).
as §1
The androgen responsive PSA-producing LNCaP and androgen independent PSA non-producing TSU-Pr1 are human prostate cancer lines were obtained from ATCC (Rockville, Md.) and maintained by serial passage in RPMI 1640 media containing 10% fetal calf serum with 100 units/ml penicillin G, and 100 units/ml streptomycin sulfate (antibiotics from M.A. Bioproducts, Walkerville, Md.) as standard media in 5% CO2/95% air at 37° C. The origins and characteristics of the LNCaP and TSU-Pr1 cell lines are described in Horoszewicz, et al., Cancer Res., 43:1809-1818, (1980)and Iizumi, et al., J. Urol, 137: 1304-1306, (1987).

Where [3] appears, read: mean (n=3) ± standard error, 5 μg/ml SR protein, free Ca2+ 100 nM, 4 min uptake, read-out: IC50 (50% inhibition of 45Ca2+ uptake to SR vesicles).

Like-named read-outs stand apart in the source and are kept apart here. Where only a bound is given, the exact number is not on record here.

T1 sequence (P04191 1-994 isoform P04191-2): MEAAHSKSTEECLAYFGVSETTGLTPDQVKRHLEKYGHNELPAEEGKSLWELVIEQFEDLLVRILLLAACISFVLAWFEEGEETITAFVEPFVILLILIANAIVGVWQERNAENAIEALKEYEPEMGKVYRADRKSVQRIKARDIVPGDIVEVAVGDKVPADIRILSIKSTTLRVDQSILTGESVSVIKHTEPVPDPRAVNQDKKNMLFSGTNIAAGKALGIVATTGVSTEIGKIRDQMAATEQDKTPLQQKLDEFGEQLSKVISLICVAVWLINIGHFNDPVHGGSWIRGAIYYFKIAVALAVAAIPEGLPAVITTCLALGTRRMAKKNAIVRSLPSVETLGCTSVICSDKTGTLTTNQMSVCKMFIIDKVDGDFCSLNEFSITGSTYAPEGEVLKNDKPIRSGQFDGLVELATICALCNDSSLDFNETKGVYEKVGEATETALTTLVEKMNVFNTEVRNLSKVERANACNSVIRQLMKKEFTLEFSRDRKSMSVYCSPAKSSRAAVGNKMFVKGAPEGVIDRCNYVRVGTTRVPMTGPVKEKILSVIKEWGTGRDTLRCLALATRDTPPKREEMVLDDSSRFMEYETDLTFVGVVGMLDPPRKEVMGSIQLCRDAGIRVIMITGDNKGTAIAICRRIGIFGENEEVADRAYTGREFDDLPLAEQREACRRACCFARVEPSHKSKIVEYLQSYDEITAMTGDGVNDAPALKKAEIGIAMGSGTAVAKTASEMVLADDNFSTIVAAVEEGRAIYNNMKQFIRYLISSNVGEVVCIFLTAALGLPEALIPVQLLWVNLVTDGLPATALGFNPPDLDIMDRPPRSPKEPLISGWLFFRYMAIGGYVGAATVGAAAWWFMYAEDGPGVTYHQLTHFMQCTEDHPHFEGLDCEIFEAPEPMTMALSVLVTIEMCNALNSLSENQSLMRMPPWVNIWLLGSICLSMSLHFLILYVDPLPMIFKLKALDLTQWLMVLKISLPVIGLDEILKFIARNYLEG

In the case of `C/C=C(/C)C(=O)O[C@H]1C(C)=C2[C@H]([C@@H]1OC(=O)CCCCCCC)[C@@](C)(OC(C)=O)C[C@H](OC(=O)c1ccc(N)cc1)[C@@]1(O)[C@H]2OC(=O)[C@@]1(C)O` [ABT, 8-O-(4-aminobenzoyl)-8-O-debutanoylthapsigargin], in series [1] (setting [3]), the IC50 was found to be 18.4 ± 0.3 nM. Moreover, the CC50 in series [2] amounted to 4000 ± 300 nM.

As to `C/C=C(/C)C(=O)O[C@H]1C(C)=C2[C@H]([C@@H]1OC(=O)CCCCCCC)[C@@](C)(OC(C)=O)C[C@H](OC(=O)CCCc1ccc(N)cc1)[C@@]1(O)[C@H]2OC(=O)[C@@]1(C)O` [ABuT, 8-O-(4-[4-aminophenyl]butanoyl)-8-O-debutanoylthapsigargin], the IC50 in series [1] (setting [3]) came out at 18.4 ± 1.4 nM. For the same compound, in series [2], the CC50 was determined as 225 ± 20 nM.

Compound `C/C=C(/C)C(=O)O[C@H]1C(C)=C2[C@H]([C@@H]1OC(=O)CCCCCCC)[C@@](C)(OC(C)=O)C[C@H](OC(=O)CCCc1ccc(NC(=O)OC(C)(C)C)cc1)[C@@]1(O)[C@H]2OC(=O)[C@@]1(C)O` [ABuT-boc, 8-O-(4-[4-t-butoxycarbonylaminophenyl]butanoyl)-8-O-debutanoylthapsigargin] displayed an IC50 in series [1] of 14.4 ± 0.8 nM.

Take `C/C=C(/C)C(=O)O[C@H]1C(C)=C2[C@H]([C@@H]1OC(=O)CCCCCCC)[C@@](C)(OC(C)=O)C[C@H](OC(=O)/C=C/c1ccc(NC(=O)OC(C)(C)C)cc1)[C@@]1(O)[C@H]2OC(=O)[C@@]1(C)O` [ACT-boc, 8-O-(4-t-butoxycarbonylaminocinnamoyl)-8-O-debutanoylthapsigargin]: the IC50 in series [1] (setting [3]) came out at 20.3 ± 0.2 nM. For the same compound, in series [2], the CC50 came to 1900 ± 100 nM.

Consider `C/C=C(/C)C(=O)O[C@H]1C(C)=C2[C@H]([C@@H]1OC(=O)CCCCCCC)[C@@](C)(OC(C)=O)C[C@H](OC(=O)CCc1ccc(N)cc1)[C@@]1(O)[C@H]2OC(=O)[C@@]1(C)O` [APT, 8-O-(3-[4-aminophenyl]propionyl)-8-O-debutanoylthapsigargin], for which the half-maximal inhibitory concentration (IC50) in series [1] (setting [3]) was 16.2 ± 0.9 nM. The CC50 in series [2] turned out to be 275 ± 60 nM.

On to `C/C=C(/C)C(=O)O[C@H]1C(C)=C2[C@H]([C@@H]1OC(=O)CCCCCCC)[C@@](C)(OC(C)=O)C[C@H](OC(=O)CCc1ccc(NC(=O)OC(C)(C)C)cc1)[C@@]1(O)[C@H]2OC(=O)[C@@]1(C)O` [APT-boc, 8-O-(3-[4-t-butoxycarbonylaminophenyl]propionyl)-8-O-debutanoylthapsigargin], for which, in series [1] (setting [3]), the IC50 came out at 21.2 ± 0.8 nM. Also, the CC50 in series [2] worked out at 870 ± 15 nM.

Take `C/C=C(/C)C(=O)O[C@H]1C(C)=C2[C@H]([C@@H]1OC(=O)CCCCCCC)[C@@](C)(OC(C)=O)C[C@H](OC(=O)CCCC(=O)Nc1ccc(C)c(N)c1)[C@@]1(O)[C@H]2OC(=O)[C@@]1(C)O` [GDT, 8-O-{4-(N-[3-amino-4-methylphenyl]-carboxamido)butanoyl}-8-O-debutanoylthapsigarg in]: the IC50 in series [1] (setting [3]) is 316 ± 23 nM. The CC50 in series [2] is 16600 ± 400 nM.

As for `C/C=C(/C)C(=O)O[C@H]1C(C)=C2[C@H]([C@@H]1OC(=O)CCCCCCC)[C@@](C)(OC(C)=O)C[C@H](OC(=O)CCCCCC(=O)Nc1ccc(C)c(N)c1)[C@@]1(O)[C@H]2OC(=O)[C@@]1(C)O` [PDT, 8-O-{6-(N-[3-amino-4-methylphenyl]-carboxamido)hexanoyl}-8-O-debutanoylthapsigargin], the 50% inhibitory concentration (IC50) in series [1] (setting [3]) was determined as 17.7 ± 2.4 nM. The CC50 in series [2] was found to be 3100 ± 200 nM.

Consider `C/C=C(/C)C(=O)O[C@H]1C(C)=C2[C@H]([C@@H]1OC(=O)CCCCCCC)[C@@](C)(OC(C)=O)C[C@H](OC(=O)CCC(=O)Nc1ccc(C)c(N)c1)[C@@]1(O)[C@H]2OC(=O)[C@@]1(C)O` [SDT, 8-O-{3-(N-[3-amino-4-methylphenyl]-carboxamido)propanoyl}-8-O-debutanoylthapsigargin], for which, in series [1] (setting [3]), the IC50 came to 1280 ± 91 nM. Further, the CC50 in series [2] was greater than 25000 nM.
